Results from the supplement of paper PMC10307832.

Assays:
Assay in all cases: relative viability (nuclei count vs DMSO), 5 days (fraction); higher = more cells survive
NCI-H2126 = tested on: NCI-H2126
Summary of the method: (§1)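 One day after seeding in 1536-well plates, lung cancer cell lines were dosed by pin tool. Dosing was either single-drug or a fixed anchor-drug dose plus five library-drug doses (not always all listed) in √10 steps. After 5 days, nuclei were stained in one fix-and-stain step and counted on 4× images, and relative viability is the nuclei count of treated wells over that of vehicle wells, given as the median of duplicate plates.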

NCI-H1993 = tested on: NCI-H1993
Summary of the method: as §1

NCI-H2342 = tested on: NCI-H2342
Summary of the method: as §1

NCI-H2228 = tested on: NCI-H2228
Summary of the method: as §1

NCI-H2170 = tested on: NCI-H2170
Summary of the method: as §1

SK-LU-1 = tested on: SK-LU-1
Summary of the method: as §1

ChaGo-K-1 = tested on: ChaGo-K-1
Summary of the method: as §1

EPLC-272H = tested on: EPLC-272H
Summary of the method: as §1

NCI-H2405 = tested on: NCI-H2405
Summary of the method: as §1

NCI-H1975 = tested on: NCI-H1975
Summary of the method: as §1

LCLC-103H = tested on: LCLC-103H
Summary of the method: as §1

NCI-H460 = settings: first compound 0.08 µM
Summary of the method: as §1

## C=C1C(=O)O[C@@H](CCCCCCCC)[C@@H]1C(=O)O [C-75] + CC(=O)Nc1cccc(-n2c(=O)n(C3CC3)c(=O)c3c(Nc4ccc(I)cc4F)n(C)c(=O)c(C)c32)c1 [Trametinib] (partner 0.02 µM)
NCI-H2126; first compound 0.08 µM
  relative viability: 0.587
NCI-H2126; first compound 0.253 µM
  relative viability: 0.587
NCI-H2126; first compound 0.8 µM
  relative viability: 0.581
NCI-H2126; first compound 2.53 µM
  relative viability: 0.553
NCI-H2126; first compound 8 µM
  relative viability: 0.502
NCI-H1993; first compound 0.08 µM
  relative viability: 0.573
NCI-H1993; first compound 0.253 µM
  relative viability: 0.541
NCI-H1993; first compound 0.8 µM
  relative viability: 0.507
NCI-H1993; first compound 2.53 µM
  relative viability: 0.576
NCI-H1993; first compound 8 µM
  relative viability: 0.557
NCI-H2342; first compound 0.08 µM
  relative viability: 0.956
NCI-H2342; first compound 0.253 µM
  relative viability: 0.813
NCI-H2342; first compound 0.8 µM
  relative viability: 0.687
NCI-H2342; first compound 2.53 µM
  relative viability: 0.65
NCI-H2342; first compound 8 µM
  relative viability: 0.917
NCI-H2228; first compound 0.08 µM
  relative viability: 0.666
NCI-H2228; first compound 0.253 µM
  relative viability: 0.673
NCI-H2228; first compound 0.8 µM
  relative viability: 0.444
NCI-H2228; first compound 2.53 µM
  relative viability: 0.372
NCI-H2228; first compound 8 µM
  relative viability: 0.519
NCI-H2170; first compound 0.08 µM
  relative viability: 0.962
NCI-H2170; first compound 0.253 µM
  relative viability: 0.924
NCI-H2170; first compound 0.8 µM
  relative viability: 0.941
NCI-H2170; first compound 2.53 µM
  relative viability: 0.849
NCI-H2170; first compound 8 µM
  relative viability: 0.85
SK-LU-1; first compound 0.08 µM
  relative viability: 0.494
SK-LU-1; first compound 0.253 µM
  relative viability: 0.598
SK-LU-1; first compound 0.8 µM
  relative viability: 0.49
SK-LU-1; first compound 2.53 µM
  relative viability: 0.458
SK-LU-1; first compound 8 µM
  relative viability: 0.468
ChaGo-K-1; first compound 0.08 µM
  relative viability: 0.878
ChaGo-K-1; first compound 0.253 µM
  relative viability: 0.875
ChaGo-K-1; first compound 0.8 µM
  relative viability: 0.819
ChaGo-K-1; first compound 2.53 µM
  relative viability: 0.538
ChaGo-K-1; first compound 8 µM
  relative viability: 0.907
EPLC-272H; first compound 0.08 µM
  relative viability: 0.311
EPLC-272H; first compound 0.253 µM
  relative viability: 0.341
EPLC-272H; first compound 0.8 µM
  relative viability: 0.27
EPLC-272H; first compound 2.53 µM
  relative viability: 0.299
EPLC-272H; first compound 8 µM
  relative viability: 0.363
NCI-H2405; first compound 0.08 µM
  relative viability: 0.635
NCI-H2405; first compound 0.253 µM
  relative viability: 0.47
NCI-H2405; first compound 0.8 µM
  relative viability: 0.691
NCI-H2405; first compound 2.53 µM
  relative viability: 0.575
NCI-H2405; first compound 8 µM
  relative viability: 0.784
NCI-H1975; first compound 0.08 µM
  relative viability: 0.452
NCI-H1975; first compound 0.253 µM
  relative viability: 0.309
NCI-H1975; first compound 0.8 µM
  relative viability: 0.305
NCI-H1975; first compound 2.53 µM
  relative viability: 0.319
NCI-H1975; first compound 8 µM
  relative viability: 0.41
LCLC-103H; first compound 0.08 µM
  relative viability: 0.64
LCLC-103H; first compound 0.253 µM
  relative viability: 0.703
LCLC-103H; first compound 0.8 µM
  relative viability: 0.624
LCLC-103H; first compound 2.53 µM
  relative viability: 0.547
LCLC-103H; first compound 8 µM
  relative viability: 0.721
NCI-H460
  relative viability: 0.215
